Results published in US20220220123A1, “AMORPHOUS AND CRYSTALLINE FORMS OF RELUGOLIX” (DR. REDDY'S LABORATORIES LIMITED, priority 2019, published 2022).

Experiment: storage stability of solid forms of relugolix
Type: physicochemical

| Structure (SMILES) | stability of the crystalline form on storage (2-8° C.) | stability of the crystalline form on storage (25° C. and 60% RH (relative humidity)) | stability of the crystalline form on storage (40° C. and 75% RH (relative humidity)) | stability (found stable; in words) (no storage conditions or duration printed) |
| --- | --- | --- | --- | --- |
| CONC(=O)Nc1ccc(-c2sc3c(c2CN(C)C)c(=O)n(-c2ccc(OC)nn2)c(=O)n3Cc2c(F)cccc2F)cc1 [crystalline form R1] | stable for at least three months | stable for at least three months | stable for at least three months | – |
| CONC(=O)Nc1ccc(-c2sc3c(c2CN(C)C)c(=O)n(-c2ccc(OC)nn2)c(=O)n3Cc2c(F)cccc2F)cc1 [amorphous relugolix] | – | – | – | stable |
